In PubChem BioAssay (NCI) one finds TGI and GI50 data, which are given here for 17 molecules.

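Exposure lasted 48 hours, with cells grown in 96-well plates and compounds tested at five concentrations. GI50 = concentration required for 50% inhibition of growth. TGI marks complete inhibition of growth.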

Test systems include DMS 114 small cell lung; HCC-2998 colon; LXFL 529 NSCLC; HOP-18 NSCLC; M19-MEL melanoma; DLD-1 colon; KM20L2 colon; MCF7 breast; T-47D breast; DU-145 prostate; HS 578T breast; MDA-N; BT-549 breast; DMS 273 small cell lung; SNB-78 CNS.
Holding throughout (assay): inhibition of tumour cell growth, NCI panel, 48 h

`O=S(=O)([O-])[O-].[Fe+2].[OH2+]c1c(Cl)cc(Cl)cc1/C=N/Nc1ccccn1`: the TGI worked out at 0.595 µM in the assay with DMS 114 small cell lung; 5.13 µM in the assay on HCC-2998 colon; 1.39 µM in the assay with LXFL 529 NSCLC; 1.93 µM in the assay on HOP-18 NSCLC; 4.86 µM with M19-MEL melanoma; 1.8 µM with DLD-1 colon. In the assay with KM20L2 colon, this molecule had a TGI of 3.66 µM. Further, the GI50 with HOP-18 NSCLC was 0.55 µM.

In the case of `CC(=O)[C@]12OC(=O)C3=C1[C@H](CC[C@@H]3C)[C@@H](C)C[C@H]2C=C(C)C`, the TGI was determined as 17.2 µM in the assay with MCF7 breast; 14.4 µM with T-47D breast; 15.4 µM in the assay with DU-145 prostate; 18.1 µM in the assay with HS 578T breast; 16.9 µM with MDA-N.

As to `O=C1O/C(=C\C=C\CO)C=C1/C=C/CO`, the TGI with MCF7 breast is greater than 100 µM; with BT-549 breast, 50.9 µM; in the assay with T-47D breast, 51.7 µM; with DU-145 prostate it was 50.7 µM; with MDA-N it was 59.9 µM.

On to `N=C(N)SCCN1CCCCC1`, for which the TGI in the assay with MCF7 breast is 34.3 µM; in the assay on BT-549 breast it was 64.9 µM; in the assay with T-47D breast it was 85.6 µM; with DU-145 prostate it was 64.7 µM; in the assay with HS 578T breast, 58.2 µM; in the assay on MDA-N it was greater than 100 µM.

Turning to `NC(=S)N/N=C1\CC(c2ccccc2)Nc2ccccc21` (stereo not drawn), the TGI with DMS 114 small cell lung was 63.4 µM; in the assay on DMS 273 small cell lung, greater than 100 µM; with LXFL 529 NSCLC, greater than 100 µM; with SNB-78 CNS, greater than 100 µM; in the assay with HOP-18 NSCLC, greater than 100 µM; with M19-MEL melanoma, greater than 100 µM. Besides, the TGI in the assay on DLD-1 colon was greater than 100 µM; with KM20L2 colon, 47.2 µM.

Regarding `Nc1ccc(S(=O)(=O)NCCS(=O)(=O)O)cc1`, the TGI in the assay with BT-549 breast, with DU-145 prostate, in the assay with HS 578T breast and in the assay with MDA-N was greater than 100 µM in each case.

On to `Cc1cccc(/C=C2/C(=O)Nc3ccccc32)n1`, for which the TGI was 30.3 µM with MCF7 breast; 22.4 µM in the assay on HCC-2998 colon; 68.6 µM in the assay on BT-549 breast; 34.2 µM with T-47D breast; 32.9 µM in the assay on DU-145 prostate; greater than 80.1 µM with HS 578T breast.

In the case of `CCCCCCCCc1ccc(CCC(N)(CO)CO)cc1`, the GI50 is 1.67 µM in the assay on MCF7 breast, 1.57 µM with HCC-2998 colon, 1.78 µM in the assay with T-47D breast and 1.81 µM in the assay with DU-145 prostate. Further, the TGI came to 3.07 µM in the assay on MCF7 breast, 2.96 µM with HCC-2998 colon, 3.44 µM with T-47D breast and 3.24 µM in the assay with DU-145 prostate.

As to `COc1cc(O)c2c(=O)c(OC)c(-c3ccc(OC)c(OC)c3)oc2c1.[Zn+2]`, the GI50 was 92.3 µM in the assay on MCF7 breast, 43.1 µM in the assay with HCC-2998 colon, 5.7 µM with T-47D breast and 24.6 µM in the assay on DU-145 prostate. The TGI in the assay with MCF7 breast was greater than 100 µM; in the assay on HCC-2998 colon, greater than 100 µM; in the assay with BT-549 breast, greater than 100 µM; in the assay with T-47D breast it was greater than 100 µM; in the assay on DU-145 prostate, greater than 100 µM; in the assay with HS 578T breast, 9.49 µM. Also, the TGI with MDA-N was greater than 100 µM.

For the molecule `Cc1ncc(COP(=O)(O)O)c(C)c1O`, the TGI in the assay with BT-549 breast, in the assay on T-47D breast, in the assay on HS 578T breast and with MDA-N was greater than 100 µM in each case.

In the case of `CC(=O)C(N=NC1CCC(S(=O)(=O)NB2N=CS2)CC1)C(=O)Nc1ccccc1C` (stereo not drawn), the TGI came out at 26.3 µM in the assay with DMS 114 small cell lung; 31.4 µM in the assay with HCC-2998 colon; 48 µM in the assay with DMS 273 small cell lung; 27.6 µM in the assay with LXFL 529 NSCLC; 67.1 µM with SNB-78 CNS; 80 µM with HOP-18 NSCLC. The TGI amounted to 34.1 µM in the assay with M19-MEL melanoma, 35.4 µM with DLD-1 colon and 29.6 µM with KM20L2 colon.

Consider `C[N+]1(c2ccccc2)C=C(c2ccccc2)SC1=S` (stereo not drawn), for which the TGI is greater than 100 µM in the assay on MCF7 breast; greater than 100 µM with HCC-2998 colon; greater than 100 µM with BT-549 breast; 8.63 µM with T-47D breast; greater than 100 µM in the assay with DU-145 prostate; greater than 100 µM with HS 578T breast.

Regarding `O=C(/C=C/c1ccc(O)cc1)c1cc(-c2cc(CCC(=O)c3ccc(O)cc3O)ccc2O)c(O)cc1O`, the TGI with MCF7 breast, with BT-549 breast, in the assay with T-47D breast, in the assay on DU-145 prostate, in the assay with HS 578T breast and in the assay with MDA-N was greater than 50 µM in each case.

Regarding `C[N+]1(C)C/C(=C\c2ccc(O)cc2)C(=O)/C(=C/c2ccc(O)cc2)C1`, the TGI in the assay with DMS 114 small cell lung, in the assay on HCC-2998 colon, in the assay with DMS 273 small cell lung, in the assay on LXFL 529 NSCLC, with SNB-78 CNS and with HOP-18 NSCLC was greater than 100 µM throughout. The TGI in the assay on M19-MEL melanoma, in the assay on DLD-1 colon and with KM20L2 colon was greater than 100 µM throughout.

For `C=C(C[C@@H](O)[C@H](C)NC(=O)OCc1ccccc1)C(=O)OC(C)(C)C`, the TGI was greater than 100 µM in the assay on MCF7 breast; greater than 100 µM in the assay on HCC-2998 colon; greater than 100 µM in the assay with BT-549 breast; 67.3 µM in the assay with T-47D breast; greater than 100 µM with DU-145 prostate; greater than 100 µM with HS 578T breast. Further, the TGI in the assay with MDA-N was greater than 100 µM.

As for `CCOc1ccc(N=Nc2ccc(-c3ccc(N=Nc4c(O)ccc5cc(S(=O)(=O)O)cc(S(=O)(=O)O)c45)cc3)cc2)cc1`, the TGI with MCF7 breast, in the assay on HCC-2998 colon, in the assay with BT-549 breast and in the assay on HS 578T breast was greater than 100 µM each time.

As for `CC(=O)c1c(C)cc2cccc(OC3OC(CO)C(O)C(O)C3O)c2c1O` (stereo not drawn) (tested in a mixture with another compound), the TGI in the assay on MCF7 breast, in the assay on HCC-2998 colon, with BT-549 breast, in the assay on T-47D breast, in the assay on DU-145 prostate and with HS 578T breast was greater than 100 µM each time. The molecule further displayed a TGI in the assay on MDA-N greater than 100 µM.
